Where two headings read alike, the source gives them in different places.
Legend:
[1] = test system: Mm5MT mouse mammary cancer cells; assay: Annexin V / PI flow cytometry apoptosis assay in Mm5MT cells; type: cell-based
Description: (§1) The Mm5MT mouse mammary adenocarcinoma cancer cell line was obtained from American Type Culture Collection (ATCC, Manassas, Va., USA) and was maintained in DMEM medium supplemented with 10% fetal bovine serum (FBS) and 100 U/ml penicillin, 100 μg/ml streptomycin. The MatLy-Lu (MLL) sub-line of the Dunning R-3327 prostate adenocarcinoma (graciously provided by B. Lokeshwar, University of Miami) (Lokeshwar et al., Int. J. Cancer 2002; 98:297-309) was maintained in RPMI1640 medium supplemented with 10% FBS, 250 nM dexamethasone, 100 U/ml penicillin and 100 μg/ml streptomycin.
Mm5MT or MLL cells (200,000 cells per well) were seeded in 6-well dishes one day before drug treatment and cultured as described above. On the day of the experiment, media was changed to DMEM supplemented with 0.5% FBS and the cells were treated with drugs as defined by the specific experimental protocol. ML-7 (Biomol, Plymouth Meeting, Pa.) was incubated with cells for 16 h when used alone. When used in combination with etoposide, ML-7 was added to cells 2 h before adding the indicated concentration of etoposide (Calbiochem, La Jolla, Calif.) and the cells were incubated with ML-7 and etoposide for an additional 16 h. The cells were then treated with trypsin, washed twice with cold PBS and re-suspended in 100 μl of buffer containing 10 mM Hepes, pH 7.4, 140 mM NaCl and 2.5 mM CaCl2 (binding buffer). […] Next, 400 μl of binding buffer was added per sample and the cells were analyzed cytofluorometrically using a Coulter Epics Elite ESP flow cytometer (Ex: 488 nm, Em: 585 nm). At least 10,000 cells were counted per analysis and cells that stained positive for annexin V and PI were judged to be apoptotic.
(§2) Cells were grown in culture dishes in Dulbecco's Modified Eagle Medium (Gibco BRL, Gaithersburg, Md.) supplemented with 10% FBS and 1% penicillin and streptomycin. […] The floating and attached cells were combined and analyzed using conventional methods.
(§3) To quantify apoptosis, cells were washed twice with cold PBS, resuspended in 100 μl of 10 mM Hepes, pH 7.4, 140 mM NaCl, 2.5 mM CaCl2 (Binding Buffer). […] After incubation, 400 μl of binding buffer was added per sample and cells were analyzed cytofluorimetrically using a Coulter Epics Elite ESP flow cytometer (excitation wavelength: 488 nm, emission wavelength: 585 nm). At least 10,000 cells were counted per analysis and cells that stained positive for Annexin V and PI were considered apoptotic.
The combined effects of ML-7 and etoposide to induce apoptosis in mouse Mm5MT mammary cancer cells was determined by pre-treating cells with vehicle (FIG. 9, open bar) or 10 μM ML-7 (shaded bar) for 2 h. Varying concentrations of etoposide (1-1000 μM) were then added and apoptosis was quantified 16 h later. […]

[2] = test system: MLL rat prostate cancer cells; assay: Annexin V / PI flow cytometry apoptosis assay in MLL (MatLyLu) cells; type: cell-based
Description: as §1
Mm5MT or MLL cells (200,000 cells per well) were seeded in 6-well dishes one day before drug treatment and cultured as described above. On the day of the experiment, media was changed to DMEM supplemented with 0.5% FBS and the cells were treated with drugs as defined by the specific experimental protocol. ML-7 (Biomol, Plymouth Meeting, Pa.) was incubated with cells for 16 h when used alone. When used in combination with etoposide, ML-7 was added to cells 2 h before adding the indicated concentration of etoposide (Calbiochem, La Jolla, Calif.) and the cells were incubated with ML-7 and etoposide for an additional 16 h. The cells were then treated with trypsin, washed twice with cold PBS and re-suspended in 100 μl of buffer containing 10 mM Hepes, pH 7.4, 140 mM NaCl and 2.5 mM CaCl2 (binding buffer). Then, 5 μl of FITC-conjugated annexin V (Pharmingen, San Diego, Calif.) and 10 μl of propidium iodide (PI) (50 μg/ml) were added and cells were incubated in the dark at room temperature for 15 min. Next, 400 μl of binding buffer was added per sample and the cells were analyzed cytofluorometrically using a Coulter Epics Elite ESP flow cytometer (Ex: 488 nm, Em: 585 nm). At least 10,000 cells were counted per analysis and cells that stained positive for annexin V and PI were judged to be apoptotic.
as §2, §3
Cells were collected 16 h after adding etoposide and apoptosis was quantified by FACS analysis.

MLC-P [3] = assay: MLC-P by urea/glycerol gel immunoblotting in Mm5MT cells; type: cell-based, mouse; details: 10 μM ML-7, 30 μM etoposide or both, 16 h
Description: MLC-P protein was measured by urea/glycerol gel immunoblotting. Mm5MT or MLL cancer cells in 6-well plates were treated with ML-7 (10 or 5 μM, respectively) or etoposide (30 μM) or combination of two at indicated concentrations for 16 h. MLC-P in cancer cells was then quantified by the urea/glycerol gel-immunoblotting method. Briefly, cancer cells were fixed in 10% trichloroacetic acid (TCA) containing 10 mM dithiothreitol (DTT). Cell pellets were washed four times with acetone and protein was extracted by dissolving in buffer containing 9 M urea, 10 mM DTT and 20 mM Tris, pH 8.0. […] This antibody recognizes the unphosphorylated and phosphorylated forms of MLC20. Immunoreactive bands were visualized using enhanced chemiluminescence (ECL) detection reagents (Amersham Pharmacia Biotech, Piscataway, N.J.).
MLC-P was measured by urea/glycerol gel-immunoblotting as described above. Un and P identify unphosphorylated and phosphorylated MLC20, respectively. […] This experiment was repeated four times and the data from a representative experiment is shown.

MLC-P [4] = assay: MLC-P by urea/glycerol gel immunoblotting in MLL cells; type: cell-based, rat; details: 5 μM ML-7, 30 μM etoposide or both
MLL cells = assay: MLL prostate tumor in Copenhagen rats, ML-7 and/or etoposide; type: in vivo
Description: To determine whether ML-7 stimulated the ability of etoposide to induce apoptosis and retard tumor growth more generally in tumor cells, the effects of ML-7 and etoposide on MLL prostate cancer cells were examined. MLL cells grown in culture were harvested and washed in serum-free Hank's buffer. The cells were suspended in 500 μl serum-free Hank's media and 10^6 cells were injected subcutaneously into the right flank of 12-week old male Copenhagen rats anesthetized with ether. […] Rats were randomly divided into four groups, five in each group, and received injections of ML-7 or vehicle via the jugular vein every 4 days for 2 weeks. ML-7 was used at the dose of 35 mg/kg. In mice receiving etoposide the drug was injected IP at the maximum tolerant dose of 50 mg/m^2 daily. Rats were sacrificed with ether 14 days after the start of drug treatment, and tumors removed, weighed and processed as described below.
To test the anticancer effect of ML-7 in a rat prostate cancer model, ML-7 or vehicle was administered by intrajugular injection, and etoposide administered by intraperitoneal injection. Male Copenhagen rats were inoculated with MLL cells as described above. […] The rats were sacrificed after 14 days of drug treatment and tumor weight and body weight were recorded.
Tumor sections were deparaffinized and rehydrated according to standard procedures. […]

## COc1cc([C@@H]2c3cc4c(cc3[C@@H](O[C@@H]3O[C@@H]5CO[C@@H](C)O[C@H]5[C@H](O)[C@H]3O)[C@H]3COC(=O)[C@H]23)OCO4)cc(OC)c1O [etoposide]
[1]; etoposide alone, extrapolation (FIG. 8), read-out: concentration of etoposide required to induce apoptosis in 50% of the cells
  EC50: ~300 µM
[1]; minus ML-7, curve fitting (FIG. 9), read-out: concentration of etoposide required for inducing apoptosis in 50% of the cells
  EC50: 572 µM
[1]; plus 10 μM ML-7 (2 h pre-treatment), curve fitting (FIG. 9), read-out: concentration of etoposide required for inducing apoptosis in 50% of the cells
  EC50: 25.4 µM
[1]; plus ML-7 (10 μM), extrapolation (FIG. 8), read-out: concentration of etoposide required to induce apoptosis in 50% of the cells
  EC50: ~20 µM
[2]; MLL cells, no ML-7 (FIG. 15), read-out: concentration of etoposide required for inducing apoptosis in 50% of the cells
  EC50: 376 µM
[2]; MLL cells, with 5 μM ML-7 pre-treatment (FIG. 15), read-out: concentration of etoposide required for inducing apoptosis in 50% of the cells
  EC50: 68 µM
[2]; MatLyLu cells, etoposide alone (FIG. 7), read-out: half-maximal concentration for producing apoptosis
  EC50: ~410 µM
[2]; MatLyLu cells, etoposide plus 5 μM ML-7 (FIG. 7), read-out: half-maximal concentration for producing apoptosis
  EC50: ~40 µM
MLC-P [3]
  MLC-P: decreased MLC-P
MLC-P [4]
  MLC-P: smaller decrease in MLC-P
MLL cells; 300 cells, MLL tumors in rats (FIG. 17)
  TUNEL positive nuclei in tumors: 35.8%
MLL cells; rats, ML-7 35 mg/kg jugular vein every 4 days, etoposide 50 mg/m^2 IP daily, 14 days
  decrease in tumor weight vs vehicle control: 43.3%

Reference: patent US20080081078A1, “Prevention of Cell Proliferation by Inhibiting Myosin Light Chain Kinase” (The Board of Trustees of the University of Illinois, priority 2006, published 2008)
